Experiments:
tolerance to morphine = experiment: Morphine tolerance in mice, hot plate test; format: in vivo
Experimental: Mice were treated twice a day with either saline (naive) or morphine (s.c., 10 mg/kg) for a period of 4 days to induce tolerance. For comparison, a dose of 10 mg, or less than 0.15 mg/kg every 4 to 10 hours, is a morphine dosage routinely prescribed for the 70 kg. human adult with severe pain. On day 5, all mice received a subcutaneous challenge dose of 3 mg./kg morphine and the level of analgesia was measured 30 minutes later. […] Tolerance to morphine was eliminated in mice that were treated with the superoxide dismutase catalyst SC-72325 administered intraperitoneally.

morphine tolerance = conditions: literature background; cited from earlier work
[1] = system: temporomandibular joint dysfunction; conditions: intra-articular injections, patients with TMJ dysfunction; cited from earlier work

For `CN1CC[C@]23c4c5ccc(O)c4O[C@H]2[C@@H](O)C=C[C@H]3[C@H]1C5` [morphine], the “analgesic effect from morphine on day 5” value (tolerance to morphine; mice treated with morphine s.c. 10 mg/kg twice a day for 4 days, challenge 3 mg/kg, 30 minutes, versus naive mice) was “decreased analgesic effect” and the analgesia (tolerance to morphine; naive or non-tolerant mice, s.c. challenge dose 3 mg/kg, hot plate test) was 90%.

In the case of `C[C@]12N[C@H](Cc3ccccc31)c1ccccc12` [MK-801], the morphine tolerance (morphine tolerance) is listed as “prevent morphine tolerance”.

For “human Cu/Zn superoxide dismutase: naturally occurring enzyme used intra-articularly as a nonsteroidal anti-inflammatory”, the “Positive response in terms of mandibular movement and pain” value [1] is listed as 83 % of patients.

In the case of `NC(=NCCC[C@H](N)C(=O)O)N[N+](=O)[O-]` [NG-nitroarginine], the morphine tolerance (morphine tolerance) is listed as “prevent and reverse morphine tolerance”.
